These results are taken from ChEMBL document CHEMBL4270580, “Syntheses of C-ring modified dehydroabietylamides and their cytotoxic activity” (Eur J Med Chem, 2018).

The test system of data set [1] is HT-29. The experiment in a line: Cytotoxicity against human HT-29 cells after 96 hrs by sulforhodamine-B assay. Type of data set: functional, cell-based.
In data set [2] the test system is MCF7. The experiment in a line: Cytotoxicity against human MCF7 cells after 96 hrs by sulforhodamine-B assay. It counts as functional, cell-based.
In data set [3] the test system is NIH3T3. The experiment in a line: Cytotoxicity against mouse NIH/3T3 cells after 96 hrs by sulforhodamine-B assay. Type of data set: cell-based. In general terms: The SRB assay estimates cell density from bound dye.
Data set [4] concerns SW-1736. The experiment in a line: Cytotoxicity against human SW1736 cells after 96 hrs by sulforhodamine-B assay. It counts as functional, cell-based.
Data set [5] has as its system FaDu. The experiment in a line: Cytotoxicity against human FADU cells after 96 hrs by sulforhodamine-B assay. It counts as functional, cell-based.
Data set [6] relates to A2780. The experiment in a line: Cytotoxicity against human A2780 cells after 96 hrs by sulforhodamine-B assay. Type of data set: functional, cell-based.
Data set [7] in a line: Selectivity index, ratio of EC50 for mouse NIH/3T3 cells to EC50 for human MCF7 cells. It counts as toxicity. As to conditions: NIH/3T3 cells and MCF7 cells, read-out: Ratio EC50.
Setting [8] is: Homo sapiens, HT-29, 96 h, read-out: EC50.
Setting [9] is: Homo sapiens, MCF7, 96 h, read-out: EC50.
The mark [10] stands for this setting: Mus musculus, NIH3T3, 96 h, read-out: EC50.
Where [11] appears, read: Homo sapiens, SW-1736, 96 h, read-out: EC50.
Where [12] appears, read: Homo sapiens, FaDu, 96 h, read-out: EC50.
Where [13] appears, read: Homo sapiens, A2780, 96 h, read-out: EC50.

For orientation: EC50 means the concentration needed to bring the measured effect to its halfway point. For `CC(=O)Oc1ccc(C(=O)NC[C@]2(C)CCC[C@]3(C)c4cc(OC(C)=O)c(C(C)C)cc4CC[C@@H]23)cc1`, the EC50 in data set [1] (setting [8]) was 11.2 µM; in data set [2] (setting [9]) it was 10.5 µM; in data set [3] (setting [10]), 21.4 µM; in data set [4] (setting [11]), 17.2 µM; in data set [5] (setting [12]) it was 20.2 µM; in data set [6] (setting [13]), 17.9 µM.

As to `CC(C)c1ccc2c(c1)CC[C@H]1[C@](C)(CNC(=O)c3ccc(Cl)cc3)CCC[C@]21C`, the EC50 in data set [1] (setting [8]), in data set [2] (setting [9]), in data set [3] (setting [10]), in data set [4] (setting [11]), in data set [5] (setting [12]) and in data set [6] (setting [13]) was over 30 µM throughout.

Regarding `CC(C)c1ccc2c(c1)CC[C@H]1[C@](C)(CNC(=O)c3ccc(O)cc3)CCC[C@]21C`, the EC50 stood at 8.5 µM in data set [1] (setting [8]); 8 µM in data set [2] (setting [9]); 6.9 µM in data set [3] (setting [10]); 13 µM in data set [4] (setting [11]); 14.1 µM in data set [5] (setting [12]); 8.7 µM in data set [6] (setting [13]).

Regarding `C=C(C)[C@@H]1CC[C@]2(C(=O)O)CC[C@]3(C)[C@H](CC[C@@H]4[C@@]5(C)CC[C@H](O)C(C)(C)[C@@H]5CC[C@]43C)[C@@H]12` [BETULINIC ACID], the EC50 in data set [1] (setting [8]) stood at 16 µM; in data set [2] (setting [9]), 10.6 µM; in data set [3] (setting [10]), 12.9 µM; in data set [4] (setting [11]), 14.8 µM; in data set [5] (setting [12]), 10.7 µM; in data set [6] (setting [13]) it was 9.7 µM.

`CC(=O)Oc1cc2c(cc1C(C)C)CC[C@H]1[C@](C)(CNC(=O)CCCC[C@H]3SCC4NC(=O)NC43)CCC[C@]21C` (some centres undefined): the concentration for a half-maximal effect (EC50) in data set [1] (setting [8]), in data set [2] (setting [9]), in data set [3] (setting [10]), in data set [4] (setting [11]), in data set [5] (setting [12]) and in data set [6] (setting [13]) was over 30 µM throughout.

As for `CC(C)c1cc2c(cc1O)[C@@]1(C)CCC[C@@](C)(CN)[C@@H]1CC2`, the EC50 turned out to be 9.5 µM in data set [1] (setting [8]); 8.9 µM in data set [2] (setting [9]); 22 µM in data set [3] (setting [10]); 13.6 µM in data set [4] (setting [11]); 11.5 µM in data set [5] (setting [12]); 17.3 µM in data set [6] (setting [13]).

As for `COc1ccc(C(=O)NC[C@]2(C)CCC[C@]3(C)c4cc(OC(C)=O)c(C(C)C)cc4CC[C@@H]23)cc1`, the concentration for a half-maximal effect (EC50) result in data set [1] (ht-29), in data set [2] (mcf7), in data set [3] (nih3t3), in data set [4] (sw-1736), in data set [5] (fadu) and in data set [6] (a2780) was “Nd(Insoluble)” each time.

On to `CC(=O)Oc1cc2c(cc1C(C)C)CC[C@H]1[C@](C)(CNC(=O)c3ccncc3)CCC[C@]21C`, for which the EC50 came out at 15.3 µM in data set [1] (setting [8]); 5.7 µM in data set [2] (setting [9]); 29.5 µM in data set [3] (setting [10]); 12.8 µM in data set [4] (setting [11]); 12.4 µM in data set [5] (setting [12]); 14.4 µM in data set [6] (setting [13]).

For `Cc1ccc(C(=O)NC[C@]2(C)CCC[C@]3(C)c4ccc(C(C)C)cc4CC[C@@H]23)cc1`, the EC50 in data set [1] (setting [8]) stood at 22.8 µM; in data set [2] (setting [9]) it was 10.4 µM; in data set [3] (setting [10]) it was 13.5 µM; in data set [4] (setting [11]) it was 14.2 µM; in data set [5] (setting [12]) it was 18.9 µM; in data set [6] (setting [13]) it was 12.5 µM.

`COc1ccc(C(=O)NC[C@]2(C)CCC[C@]3(C)c4ccc(C(C)C)cc4CC[C@@H]23)cc1`: the EC50 in data set [1] (setting [8]) is 10.4 µM; in data set [2] (setting [9]), 4.5 µM; in data set [3] (setting [10]), 22.8 µM; in data set [4] (setting [11]), 11.2 µM; in data set [5] (setting [12]) it was 17.3 µM; in data set [6] (setting [13]) it was 9.1 µM. The selectivity ratio in data set [7] is 8.8.

In the case of `CC(=O)Oc1cc2c(cc1C(C)C)CC[C@H]1[C@](C)(CN)CCC[C@]21C`, the EC50 in data set [1] (setting [8]) is 10.1 µM; in data set [2] (setting [9]), 10.7 µM; in data set [3] (setting [10]) it was over 30 µM; in data set [4] (setting [11]), 18.3 µM; in data set [5] (setting [12]), 13.1 µM; in data set [6] (setting [13]), 20 µM.

For `CC(C)c1cc2c(cc1O)[C@@]1(C)CCC[C@@](C)(CNC(=O)c3ccccc3)[C@@H]1CC2`, the EC50 in data set [1] (setting [8]) came out at 16.2 µM; in data set [2] (setting [9]), 4.8 µM; in data set [3] (setting [10]), 18.1 µM; in data set [4] (setting [11]) it was 11.5 µM; in data set [5] (setting [12]), 14.8 µM; in data set [6] (setting [13]) it was 12.5 µM.

With `CC(=O)Oc1cc2c(cc1C(C)C)CC[C@H]1[C@](C)(CNC(=O)c3ccc(C)cc3)CCC[C@]21C`, the EC50 in data set [1] (setting [8]) is 26.7 µM; in data set [2] (setting [9]) it was 11.5 µM; in data set [3] (setting [10]), over 30 µM; in data set [4] (setting [11]), 10.7 µM; in data set [5] (setting [12]) it was 12.8 µM; in data set [6] (setting [13]), 19.4 µM.

For `COc1ccc(C(=O)NC[C@]2(C)CCC[C@]3(C)c4cc(O)c(C(C)C)cc4CC[C@@H]23)cc1`, the EC50 in data set [1] (setting [8]) came to 13.5 µM; in data set [2] (setting [9]) it was 11.7 µM; in data set [3] (setting [10]), 23.2 µM; in data set [4] (setting [11]) it was 16.1 µM; in data set [5] (setting [12]), 20 µM; in data set [6] (setting [13]), 13.2 µM.

As for `CC(C)c1cc2c(cc1O)[C@@]1(C)CCC[C@@](C)(CNC(=O)CCCC[C@H]3SCC4NC(=O)NC43)[C@@H]1CC2` (some centres undefined), the EC50 in data set [1] (setting [8]), in data set [2] (setting [9]), in data set [3] (setting [10]), in data set [4] (setting [11]), in data set [5] (setting [12]) and in data set [6] (setting [13]) was over 30 µM each time.

On to `CC(=O)Oc1cc2c(cc1C(C)C)CC[C@H]1[C@](C)(CNC(=O)c3ccc(Cl)cc3)CCC[C@]21C`, for which the EC50 in data set [1] (setting [8]) is 11.7 µM; in data set [2] (setting [9]), 6.1 µM; in data set [3] (setting [10]), over 30 µM; in data set [4] (setting [11]), 15.3 µM; in data set [5] (setting [12]) it was 14.4 µM; in data set [6] (setting [13]) it was 5 µM.

Take `CC(C)c1cc2c(cc1O)[C@@]1(C)CCC[C@@](C)(CNC(=O)c3ccc(O)cc3)[C@@H]1CC2`: the EC50 in data set [1] (setting [8]), in data set [2] (setting [9]), in data set [3] (setting [10]), in data set [4] (setting [11]), in data set [5] (setting [12]) and in data set [6] (setting [13]) was over 30 µM each time.

For the compound `Cc1ccc(C(=O)NC[C@]2(C)CCC[C@]3(C)c4cc(O)c(C(C)C)cc4CC[C@@H]23)cc1`, the EC50 in data set [1] (setting [8]) amounted to 17.2 µM; in data set [2] (setting [9]) it was 8.5 µM; in data set [3] (setting [10]), 16.8 µM; in data set [4] (setting [11]), 7 µM; in data set [5] (setting [12]) it was 12.2 µM; in data set [6] (setting [13]) it was 10 µM.

Consider `CC(C)c1ccc2c(c1)CC[C@H]1[C@](C)(CNC(=O)c3ccccc3)CCC[C@]21C`, for which the EC50 in data set [1] (setting [8]), in data set [2] (setting [9]), in data set [3] (setting [10]), in data set [4] (setting [11]), in data set [5] (setting [12]) and in data set [6] (setting [13]) was over 30 µM each time.

Take `CC(C)c1ccc2c(c1)CC[C@H]1[C@](C)(CNC(=O)c3ccncc3)CCC[C@]21C`: the EC50 was 10.7 µM in data set [1] (setting [8]); 7.9 µM in data set [2] (setting [9]); 16.9 µM in data set [3] (setting [10]); 14.2 µM in data set [4] (setting [11]); 14.4 µM in data set [5] (setting [12]); 9.8 µM in data set [6] (setting [13]).

Take `CC(C)c1cc2c(cc1OC(=O)c1ccccc1)[C@@]1(C)CCC[C@@](C)(CNC(=O)c3ccccc3)[C@@H]1CC2`: the EC50 in data set [1] (setting [8]), in data set [2] (setting [9]), in data set [3] (setting [10]), in data set [4] (setting [11]), in data set [5] (setting [12]) and in data set [6] (setting [13]) was over 30 µM throughout.

For the compound `CC(C)c1cc2c(cc1O)[C@@]1(C)CCC[C@@](C)(CNC(=O)c3ccncc3)[C@@H]1CC2`, the EC50 is 19 µM in data set [1] (setting [8]); 4.3 µM in data set [2] (setting [9]); 24.2 µM in data set [3] (setting [10]); 27.3 µM in data set [4] (setting [11]); 18.8 µM in data set [5] (setting [12]); 12.9 µM in data set [6] (setting [13]). For the same compound, the selectivity ratio in data set [7] was found to be 6.2.

Take `CC(C)c1ccc2c(c1)CC[C@H]1[C@](C)(CNC(=O)CCCC[C@H]3SCC4NC(=O)NC43)CCC[C@]21C` (some centres undefined): the EC50 in data set [1] (setting [8]) is 15.5 µM; in data set [2] (setting [9]), 11.6 µM; in data set [3] (setting [10]), 15.7 µM; in data set [4] (setting [11]), over 30 µM; in data set [5] (setting [12]), 24.5 µM; in data set [6] (setting [13]) it was 18.6 µM.

On to `CC(C)c1cc2c(cc1O)[C@@]1(C)CCC[C@@](C)(CNC(=O)c3ccc(Cl)cc3)[C@@H]1CC2`, for which the EC50 came out at 10.5 µM in data set [1] (setting [8]); 5 µM in data set [2] (setting [9]); 16 µM in data set [3] (setting [10]); 10.2 µM in data set [4] (setting [11]); 21.9 µM in data set [5] (setting [12]); 6.6 µM in data set [6] (setting [13]).

Take `CC(=O)Oc1cc2c(cc1C(C)C)CC[C@H]1[C@](C)(CNC(=O)c3ccccc3)CCC[C@]21C`: the 50% effective concentration (EC50) in data set [1] (setting [8]) amounted to 9 µM; in data set [2] (setting [9]), 4.5 µM; in data set [3] (setting [10]), 17.3 µM; in data set [4] (setting [11]), 13.5 µM; in data set [5] (setting [12]), 13.4 µM; in data set [6] (setting [13]), 8.1 µM.

Turning to `CC(C)c1ccc2c(c1)CC[C@H]1[C@](C)(CN)CCC[C@]21C`, the EC50 in data set [1] (setting [8]) is 2.1 µM; in data set [2] (setting [9]), 3 µM; in data set [3] (setting [10]), 2.4 µM; in data set [4] (setting [11]), 4.2 µM; in data set [5] (setting [12]), 3.9 µM; in data set [6] (setting [13]), 3.8 µM. The selectivity ratio in data set [7] came out at 0.8.
